Consider 1 compound from paper PMC11475281, “A Novel Liver Cancer-Selective Histone Deacetylase Inhibitor Is Effective against Hepatocellular Carcinoma and Induces Durable Responses with Immunotherapy” (ACS Pharmacology & Translational Science, 2024).

The subject of data set [1] is Hep3B. The experiment in a line: MTS cell viability assay, 72 h. It counts as cell-based. The note with it: Homo sapiens, Figure 1g, read-out: Anti-proliferation effects IC50 (μM) Hep3 B. From the text: (§1) We then screened STR-V-53 and all the synthesized glycosylated HDACi for their effects on the viability of three cell lines: A549 (lung adenocarcinoma), Hep-G2 (HCC), and VERO (a normal kidney epithelial cell). We used SORA and STR-V-48, a previously disclosed nonglycosylated compound, as controls.[25] […] Additionally, compound STR-V-167, the peracetylated analog of STR-V-53, largely retained the Hep-G2 selectivity of STR-V-53 (Table S2). Subsequently, we evaluated the effects of STR-V-53 on cell proliferation using a panel of human HCC cell lines (Huh-7, SK-Hep-1, and Hep3B) as well as Kupffer cells (liver resident macrophages) by MTS assay. We observed that STR-V-53 is 7- to 16-fold more cytotoxic against these HCC cell lines relative to the Kupffer cells (Figure 1g). […] Based on their weak HDAC and cell proliferation inhibition activities, we de-emphasized further evaluation of the class III compounds.
(§2) 10-017-CV), supplemented with 10% fetal bovine serum (FBS) (Corning, 35-010-CV). Hep-G2 cells were cultured in phenol red-free Minimum Essential Medium (MEM) (Corning, 17-305-CV), supplemented with 10% fetal bovine serum (FBS). SK-Hep-1 in ATCC-formulated EMEM (ATCC® 30–2003™); Huh-7 in DMEM (containing 4 mM L-glutamine and 1 g/L glucose) with […]
(§3) Kupffer Cell Media (Sekisui XenoTech, LLC, Cat. #K8700). Cells were seeded into a 96-well plate (2000 counts/100uL) for 24 h prior to treatment and then treated with various drug concentrations for 72 h. All drugs were dissolved in media with DMSO concentration maintained at 1%. The effect of compounds on cell viability was measured using the MTS assay (CellTiter 96 Aqueous One Solution and CellTiter 96 Non-Radioactive Cell Proliferation Assays, Promega, Madison, WI) as described by the manufacturer. IC50s were determined using Prism GraphPad 8. […]

The subject of data set [2] is Huh-7. Briefly: MTS cell viability assay, 72 h. It counts as cell-based. Conditions: Homo sapiens, Figure 1g, read-out: Anti-proliferation effects IC50 (μM) Huh-7.
Excerpt: as §1, §2, §3

Data set [3] relates to Kupffer cells (liver resident macrophages). The experiment in a line: MTS cell viability assay, 72 h. It counts as cell-based. The note with it: Macrophage; Figure 1g; read-out: Anti-proliferation effects IC50 (μM) Kupffer.
Excerpt: as §1, §2, §3

The test system of data set [4] is SK-Hep-1. The experiment in a line: MTS cell viability assay, 72 h. It counts as cell-based. Conditions: Homo sapiens, SK-HEP1; Figure 1g; read-out: Anti-proliferation effects IC50 (μM) SK-Hep-1.
Excerpt: as §1, §2, §3

The test system of data set [5] is NCI-60 panel cancer cells. The experiment in a line: NCI-60 panel one-dose screen. It counts as cell-based. Conditions: 10 μM. The procedure:
To further investigate the cancer cell-type selectivity of these glycosylated HDACi, we screened STR-V-53 (10 μM) in the NCI 60 panel. […] The antiproliferative effect of STR-V-53 against Hep-G2 cells and its lack of growth inhibition in the NCI-60 panel strongly support the HCC cell-selective attribute of STR-V-53 and possibly other lead glycosylated HDACi identified herein.

The test system of data set [6] is healthy C57Bl/6 mice. Briefly: Maximum tolerated dose determination. It counts as in vivo. Conditions: 100 mg/kg i.p. daily for 6 days. The procedure:
Based on the data from the aforementioned in vitro studies, we selected STR-V-53 as a candidate for further evaluation in xenograft and murine models of HCC. Before the efficacy studies, we first determined the plasma stability (murine and human) and maximum tolerated dose (MTD) of STR-V-53 in healthy C57Bl/6 mice. […]. For MTD determination, STR-V-53 was administered via i.p. injection using a formulation containing excipients found in FDA-approved drugs—dimethylacetamide (DMA)/Cremophor RH 40 (CRH)/Water (10%/20%/70%)—that we developed.[17] […]
Then cells were treated with another 500 µL of 100 ug/mL PI staining at room temperature for 30 min. The cell cycle was analyzed with BD FACS Aria Illu analyzer, and the data were […]
The stability of STR-V-53 in murine and human plasmas was determined through a contract agreement with Cyprotex, an Evotec Company (https://www.cyprotex.com) […]
days in Kolliphor/DMA/water vehicle. We measured body weight and monitored daily food consumption, overall health, and mortality. […]
C57Bl/6 mice, 6–8 weeks old, 3 males and 3 females per treatment group, were injected intraperitoneally with STR-V-53 at […] in Kolliphor/DMA/water vehicle. Eight hours after the injection, organs were harvested and frozen at −80 °C for subsequent quantification by LC-

As for `O=C(CCCCCCn1cc(-c2ccc(O[C@H]3O[C@H](CO)[C@@H](O)[C@H](O)[C@H]3O)cc2)nn1)NO` [STR-V-53], the IC50 in data set [1] is 11.1 µM; in data set [2], 6.25 µM; in data set [3], above 100 µM; in data set [4], 13.9 µM. Moreover, the “Mean cell growth in NCI-60 panel” value in data set [5] is given as 99.6%. Moreover, in data set [6], the “Body weight as an indicator of toxicity” value is listed as “no significant body weight loss”.
